One data set addresses T1, TRPV1 channel (Homo sapiens, UniProt Q8NER1).
T1 construct: host or cells: HEK293
The data set can be described thus: Calcium mobilization assay in HEK293/TRPV1 cells (2APB-stimulated). In kind it is cell-based. The procedure:
(§1) Recombinant HEK293/TRPA1, HEK293/TRPV1, and HEK293/TRPV4 cell lines were generated by HD Bioscience Co. Ltd (Shanghai, China) following standard procedures as reported previously. HEK293/TRPA1 and HEK293/TRPV4 cells were cultured in complete DMEM medium with 100 μg/mL hygromycin B, 50 U/mL penicillin, and 100 μg/mL streptomycin. HEK293/TRPV1 cells were cultured with 350 μg/mL zeocin and 5 μg/mL blasticidin in complete DMEM culture medium.
(§2) Calcium influx upon TRPA1 activation by agonist stimulation was measured using calcium mobilization assay as reported previously. Briefly, cells were plated into 96-well microplates (matrigel coated) at a density of 3.5 × 10^4 cells per well. The plates were incubated at 37 °C with 5% CO2 overnight to allow the cells to recover. On the following day, replace cell culture medium with loading buffer containing Fluo-4 AM (MD, CA, USA), kept the plate at 37 °C for 30 min. Test compound was added to cells 10 min prior to the onset of TRAP1 agonist cinnamaldehyde, TRPV1 agonist 2APB, or TRPV4 agonist GSK1016790A. The calcium signal was captured with Flexstation II reader (MD, CA, USA) at 37 °C for TRPA1 and TRPV1 activation. The reader chamber was set at 24 °C for TRPV4 activation.

A further data set addresses T2, TRPV4 ion channel (Homo sapiens, UniProt Q9HBA0).
T2 construct: host or cells: HEK293
Description: Calcium mobilization assay in HEK293/TRPV4 cells (GSK1016790A-stimulated). In kind it is cell-based. As to the method: TRPV4 is another critical TRP ion channel that plays a role in thermal and mechanical hyperalgesia. TRPV4 shares similarity with TRPA1 [24, 25]. […] Firstly, the activating effect of the TRPV4 agonist GSK1016790A was tested. […] Thereafter, cardamonin was incubated with HEK293/TRPV4 cells at 90 μM, 30 μM, and 10 μM prior to 83 nM GSK1016790A stimulation. HEK293/TRPV4 cells treated in the absence of the test compound was the negative control and 330 μM ruthenium red was performed as the positive control.
as §1, §2
Background: Calcium assays in cells follow changes in intracellular calcium, usually with a dye or a luminescent sensor.

In data set [1] the target is T3, hTRPA1 cation channel (Homo sapiens, UniProt O75762).
T3 construct: host or cells: HEK293
T3 sequence (O75762 whole entry): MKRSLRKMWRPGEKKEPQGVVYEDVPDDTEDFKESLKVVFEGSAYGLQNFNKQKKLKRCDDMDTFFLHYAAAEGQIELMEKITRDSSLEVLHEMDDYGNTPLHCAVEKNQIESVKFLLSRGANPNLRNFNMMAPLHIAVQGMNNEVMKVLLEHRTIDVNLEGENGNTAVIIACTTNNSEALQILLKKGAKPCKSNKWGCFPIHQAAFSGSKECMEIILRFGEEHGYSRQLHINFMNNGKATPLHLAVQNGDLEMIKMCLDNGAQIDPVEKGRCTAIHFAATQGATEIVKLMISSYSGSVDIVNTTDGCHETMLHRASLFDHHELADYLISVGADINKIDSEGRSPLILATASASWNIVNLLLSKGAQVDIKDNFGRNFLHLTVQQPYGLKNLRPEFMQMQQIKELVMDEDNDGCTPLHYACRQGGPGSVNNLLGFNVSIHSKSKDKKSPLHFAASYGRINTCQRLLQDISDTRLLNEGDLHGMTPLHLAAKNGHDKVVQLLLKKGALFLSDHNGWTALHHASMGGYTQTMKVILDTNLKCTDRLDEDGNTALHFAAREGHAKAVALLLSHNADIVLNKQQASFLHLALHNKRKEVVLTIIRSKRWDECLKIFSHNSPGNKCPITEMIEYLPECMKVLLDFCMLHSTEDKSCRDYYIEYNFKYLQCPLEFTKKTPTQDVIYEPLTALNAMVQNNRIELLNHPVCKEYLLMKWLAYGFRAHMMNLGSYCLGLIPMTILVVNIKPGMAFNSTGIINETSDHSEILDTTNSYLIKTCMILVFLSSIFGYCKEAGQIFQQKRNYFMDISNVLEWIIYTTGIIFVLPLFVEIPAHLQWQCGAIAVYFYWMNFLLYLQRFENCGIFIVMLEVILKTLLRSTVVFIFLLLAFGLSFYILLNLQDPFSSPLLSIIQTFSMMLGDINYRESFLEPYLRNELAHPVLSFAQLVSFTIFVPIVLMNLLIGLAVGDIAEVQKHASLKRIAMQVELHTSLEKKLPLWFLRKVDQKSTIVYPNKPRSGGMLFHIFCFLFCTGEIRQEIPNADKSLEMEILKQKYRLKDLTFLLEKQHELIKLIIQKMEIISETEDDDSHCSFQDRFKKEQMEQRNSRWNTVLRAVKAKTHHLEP
Conditions: HEK293/TRPA1 activation; cited from earlier work.

A further data set relates to HEK293 cells. Description: HEK293 cell viability, Cell Titer-Glo assay. The class given is cell-based. Conditions: 24 h. The procedure: In order to rule out the possibilities of false positives, we tested whether cardamonin induced cytotoxicity in HEK293 cells. The cells were seeded into 96-well plate and incubated in the presence or absence of cardamonin. HEK293 cells were incubated with cardamonin for 24 h. […] HEK293 cell viability was determined based on quantification of ATP using Cell Titer-Glo® luminescent Assay kit (Promega, Madison, WI, USA), which signals the presence of metabolically-active cells. Briefly, HEK293 cells were seeded into 96-well plates at a cell density of 3.5 × 10^4 cells per well, the plates were kept at 37 °C with 5% CO2 overnight. On the following day, cardamonin was added to the cells from a top concentration of 90 μΜ. The cells treated in the absence of the test compound were the negative control. After incubated for 24 h, Cell Titer-Glo reagent was added to the cells and Luminescence was acquired on EnVision™ 2100 Multilabel Reader (PerkinElmer, Santa Clara, CA, USA).
(Cellular ATP, detected with luciferase, serves as a proxy for viable cell number.)

In data set [2] the target is T3, hTRPA1 cation channel. Description: Calcium mobilization assay in HEK293/TRPA1 cells (cinnamaldehyde-stimulated). In kind it is cell-based. As to the method:
To discover a novel TRPA1 antagonist, a small library containing 156 natural chemicals were evaluated for their inhibitory effects on the TRPA1 ion channel at 10 μM (Figure 1A). The compound list was released previously. The cells were pre-incubated with cinnamaldehyde (CA) by its EC80 (90 μΜ) for 10 min and then treated with tested compounds. […] The time-course profile of the calcium signal was recorded (Figure 1B) and the peak value was used for determination of the maximum calcium mobilization.
as §1, §2

Data set [3] deals with neonatal rat cardiomyocytes (CMs). The data set can be described thus: Cardiotoxicity evaluation, xCELLigence RTCA cardio impedance. The class given is cell-based. Conditions: 10 μM.
Description: To assess the potential adverse risk in cardiomyocytes, we administrated neonatal rat cardiomyocytes (CMs) with cardamonin, tested at 10 μM (22-fold of the IC50 value). Amiodarone (10 μM), an antiarrhythmic drug that delays cardiac repolarization through inhibiting hERG potassium channels [31], was performed as a positive cardio toxic control [32]. […] Amplitude represented the height of the print. […] Cell index represented cell number and viability. […] Cardiotoxicity test of cardamonin was performed with neonatal rat cardiomyocytes that obtained from 24 h Sprague-Dawley rats [47]. Compound treatment and cardiomyocytes impedance profiles were monitored as previously reported by Yu et al. [48]. Briefly, CMs cells were seeded into cardio E-Plate 96 that pre-coated with matrigel. Thereafter, cell culture medium was refreshed every day until CMs presented stable beating patterns. For compound treatment, 10× chemical dose solutions were prepared and added to the cells. The cell impedance was captured using xCELLigence RTCA cardio instrument.

T2 sequence (Q9HBA0 whole entry): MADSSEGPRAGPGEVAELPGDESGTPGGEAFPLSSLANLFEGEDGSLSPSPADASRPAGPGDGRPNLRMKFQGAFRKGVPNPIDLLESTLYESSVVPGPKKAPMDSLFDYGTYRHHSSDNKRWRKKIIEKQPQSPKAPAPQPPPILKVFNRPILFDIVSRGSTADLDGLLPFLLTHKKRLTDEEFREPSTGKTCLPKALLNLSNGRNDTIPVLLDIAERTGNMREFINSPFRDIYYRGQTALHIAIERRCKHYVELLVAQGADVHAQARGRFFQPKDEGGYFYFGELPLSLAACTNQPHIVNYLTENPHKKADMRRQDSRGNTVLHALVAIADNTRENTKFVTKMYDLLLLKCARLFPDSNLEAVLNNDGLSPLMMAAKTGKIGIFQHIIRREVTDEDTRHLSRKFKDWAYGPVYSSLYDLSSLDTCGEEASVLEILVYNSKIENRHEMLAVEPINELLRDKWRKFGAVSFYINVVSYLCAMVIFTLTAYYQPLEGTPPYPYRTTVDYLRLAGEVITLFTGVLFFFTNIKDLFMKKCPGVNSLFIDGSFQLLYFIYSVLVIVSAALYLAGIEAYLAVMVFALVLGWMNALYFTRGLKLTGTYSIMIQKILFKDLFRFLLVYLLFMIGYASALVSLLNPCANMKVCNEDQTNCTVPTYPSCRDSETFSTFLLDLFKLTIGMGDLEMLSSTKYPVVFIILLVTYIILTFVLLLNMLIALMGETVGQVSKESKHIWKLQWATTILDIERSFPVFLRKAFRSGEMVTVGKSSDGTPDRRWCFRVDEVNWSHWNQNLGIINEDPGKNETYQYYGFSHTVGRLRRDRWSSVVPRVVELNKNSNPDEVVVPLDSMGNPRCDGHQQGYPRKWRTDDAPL
T1 sequence (Q8NER1 whole entry): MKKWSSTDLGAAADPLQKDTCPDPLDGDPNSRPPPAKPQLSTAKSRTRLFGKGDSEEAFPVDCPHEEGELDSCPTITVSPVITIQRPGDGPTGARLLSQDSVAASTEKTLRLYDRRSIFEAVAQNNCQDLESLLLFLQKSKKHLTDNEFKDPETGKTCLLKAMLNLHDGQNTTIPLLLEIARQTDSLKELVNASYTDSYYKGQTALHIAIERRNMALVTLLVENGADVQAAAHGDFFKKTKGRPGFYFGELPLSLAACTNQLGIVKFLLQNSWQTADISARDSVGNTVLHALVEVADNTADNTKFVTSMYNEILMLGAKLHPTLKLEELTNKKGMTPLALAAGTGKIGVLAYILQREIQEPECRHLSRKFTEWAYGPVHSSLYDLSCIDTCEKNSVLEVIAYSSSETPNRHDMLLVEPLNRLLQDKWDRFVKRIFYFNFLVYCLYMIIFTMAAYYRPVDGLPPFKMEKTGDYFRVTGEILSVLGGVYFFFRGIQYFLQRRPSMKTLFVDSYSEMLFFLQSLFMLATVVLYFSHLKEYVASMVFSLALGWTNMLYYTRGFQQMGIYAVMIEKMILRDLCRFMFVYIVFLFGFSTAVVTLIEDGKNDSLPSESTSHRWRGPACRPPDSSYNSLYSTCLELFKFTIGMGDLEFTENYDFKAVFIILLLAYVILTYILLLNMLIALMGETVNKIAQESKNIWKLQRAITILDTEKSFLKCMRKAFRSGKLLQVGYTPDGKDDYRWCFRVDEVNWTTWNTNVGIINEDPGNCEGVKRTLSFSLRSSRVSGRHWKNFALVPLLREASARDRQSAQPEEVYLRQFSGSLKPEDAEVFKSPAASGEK

As for `Cl.Cl.Cl.Cl.Cl.Cl.N.N.N.N.N.N.N.N.N.N.N.N.N.N.[O-2].[O-2].[Ru+3].[Ru+3].[Ru+4]` [ruthenium red, reference compound], the IC50 (in general, the concentration that gives 50% inhibition) on TRPV1 channel (HEK293/TRPV1, 1 mM 2APB stimulation, read-out: IC50, inhibition of TRPV1 activation) came out at 207 µM; at TRPV4 ion channel (HEK293/TRPV4, added 10 min prior to 83 nM GSK1016790A, 24 °C, read-out: IC50, blocking TRPV4 activation) it was 29.8 µM.

On to `O=C/C=C/c1ccccc1` [cinnamaldehyde], for which the “EC80 of TRPA1 agonist” value on hTRPA1 cation channel [1] is 90 μΜ.

On to `COc1cc(O)cc(O)c1C(=O)/C=C/c1ccccc1` [cardamonin], for which the “Inhibition of calcium influx in HEK293/TRPV1 cells” value on TRPV1 channel (90 μΜ, 30 μΜ and 10 μΜ, pre-treated 10 min, 1 mM 2APB, 37 °C) is given as “failed to inhibit calcium influx”. The “Cytotoxicity in HEK293 cells” value with HEK293 cells (90 μΜ (top concentration)) is recorded as “slight cell injury”. The “Cytotoxicity in HEK293 cells” value with HEK293 cells (within 30 μΜ, p > 0.05) is reported as “no detectable cytotoxicity”. Besides, on hTRPA1 cation channel [2], the IC50 was found to be 0.454 µM. Further, the “Inhibition of CA induced HEK293/TRPA1 activation (screen)” value at hTRPA1 cation channel [2] (10 μM compound, 90 μM cinnamaldehyde) is “significantly inhibited”. On hTRPA1 cation channel [2] (at 90 μM compound), the “Blockage of TRPA1 activity” value was “Full blockage”. For the same compound, the “Activation of TRPA1 by compound alone” value on hTRPA1 cation channel [2] (without agonist) is recorded as “could not activate TRPA1 alone”. Besides, in data set [3], the “Amplitude profile of CMs” value is “in accordance with vehicle control”; the “CMs' beating pattern (real-time beating impedance)” value is “did not induce dramatic alteration”; the “CMs' beating rate” value is “not”; the “Cell index (CMs cell number and cell viability)” value is reported as “did not significantly decrease”. The “Inhibition of TRPV4 calcium signal” value on TRPV4 ion channel (90 μM, 30 μM and 10 μM prior to 83 nM GSK1016790A) is on record as “No detectable inhibiting effect”.

Take `CC(C)C[C@H](NC(=O)c1cc2ccccc2s1)C(=O)N1CCN(C(=O)[C@H](CO)NS(=O)(=O)c2ccc(Cl)cc2Cl)CC1` [GSK1016790A]: the 50% effective concentration (EC50) (as a rule, the concentration that produces a half-maximal response) at TRPV4 ion channel was 0.0092 µM.

Take `CCCCc1oc2ccccc2c1C(=O)c1cc(I)c(OCCN(CC)CC)c(I)c1` [amiodarone, reference compound]: in data set [3], the “CMs' beating rate” value is reported as “significantly decreased”.
